Experimental data reported in ChEMBL document CHEMBL1150539, “A novel non nucleoside compound with high in vitro anti-HIV-1 activity. Absolute stereochemistry determination” (Bioorg Med Chem Lett, 1995).
Where “and” joins values, the source holds several entries; their conditions need not be identical. Identical values can stand only once.

How the values were obtained:
Assay type in all cases: functional, cell-based, Homo sapiens
CEM-SS [1] = assay: Effective concentration required for 50% inhibition of viral replication by syncytium-forming assay carried out in CEM-SS cells
CEM-SS [2] = assay: Effective concentration required for 50% inhibition of viral replication by XTT cytoprotection assay carried out in CEM-SS cells
CEM-SS [3] = assay: Compound was evaluated for inhibitory activity against cell growth

Compound | EC50 (CEM-SS [1]; cem-ss) | EC50 (CEM-SS [2]; Homo sapiens, CEM-SS) | IC50 (CEM-SS [3]; cem-ss) | EC50 (CEM-SS [1]; Homo sapiens, CEM-SS) | EC50 (CEM-SS [2]; cem-ss) | IC50 (CEM-SS [3]; Homo sapiens, CEM-SS)
CC1(C)CCC[C@@]2(C)[C@H](c3ccoc3)C(=O)[C@H]3O[C@@]312 (racemic) | 1.7 µM | 1.3 µM | 45.7 µM and 53.8 µM | – | – | –
CC1(C)CCC[C@]2(C)[C@@H](c3ccoc3)C(=O)[C@@H]3O[C@]312 | – | 42.1 µM | 48.3 µM and 154 µM | 15.4 µM | – | –
CC1(C)CCC[C@@]2(C)[C@H](c3ccoc3)C(=O)[C@H]3O[C@@]312 | 0.6 µM | – | 42.1 µM and 135 µM | – | 0.8 µM | –
Cc1cn([C@H]2C[C@H](N=[N+]=[N-])[C@@H](CO)O2)c(=O)[nH]c1=O [ZIDOVUDINE] | – | 0.3 µM | – | 0.02 µM | – | > 1890 µM
